Patent publication US7135467B2, “HIV integrase inhibitors” (priority 2003, dated 2006)

target: T1, HIV-integrase (recombinant integrase) (Human immunodeficiency virus type 1 group M subtype B, UniProt P12497); experiment: HIV-Integrase Inhibition Activity (SPA bead strand-transfer assay); assay type: biochemical; conditions: recombinant integrase on biotin labeled substrate DNA/SPA beads, P33 labeled target DNA; read-out: Activity (IC50 against HIV-integrase)
T1 construct: Recombinant integrase (0.26 ng) was incubated with the beads
Protocol: To evaluate in-vitro activity against HIV-integrase, 5 pmole of biotin labeled substrate DNA was bound to 100 μg of Streptavidin coated PVT SPA beads (Amersham Pharmacia Biotech). Recombinant integrase (0.26 ng) was incubated with the beads for 90 min at 37° C. Unbound enzyme was removed by washing the complex followed by addition of inhibitors and 0.1 fmol of P33 labeled target DNA. The reaction was stopped by adding EDTA to a final concentration of 10 mM. Samples were counted in TopCountNXT (Packard) and the CPM was used as a measure of integration. The reaction condition was as described in A. Engelman and R. Craigie, J. Virol. 69, 5908–5911 (1995). The sequences of substrate and target DNA were described in Nucleic Acid Research 22, 1121–1122 (1994). Activity equal to A refers to a compound having IC50=0.003 to 0.10 μM while B and C denote compounds the following IC50=0.1 to 1.0 μM and IC50≧1.0 μM respectively.

Cn1c(N2CCCCS2(=O)=O)nc(C(=O)NCc2ccc(Cl)cc2)c(O)c1=O [Compound 4, N-[(4-chlorophenyl)methyl]-1,6-dihydro-5-hydroxy-1-methyl-6-oxo-2-(tetrahydro-1,1-dioxido-2H-1,2-thiazin-2-yl)-4-pyrimidinecarboxamide] was tested. Which IC50 did it give?
The IC50 was 3 to 100 nM.

For COc1ccc(CCNC(=O)c2nc(N3CCCCS3(=O)=O)n(C)c(=O)c2O)cc1 [Compound 27, 1,6-dihydro-5-hydroxy-N-[2-(4-methoxyphenyl)ethyl]-1-methyl-6-oxo-2-(tetrahydro-1,1-dioxido-2H-1,2-thiazin-2-yl)-4-pyrimidinecarboxamide], which IC50 is on record?
The IC50 was at least 1000 nM.

How did the IC50 turn out when Cn1c(N2CCC[C@H]2C(N)=O)nc(C(=O)NCc2ccc(F)cc2)c(O)c1=O [Compound 95, 2-[(2S)-2-(aminocarbonyl)-1-pyrrolidinyl]-N-[(4-fluorophenyl)methyl]-1,6-dihydro-5-hydroxy-1-methyl-6-oxo-4-pyrimidinecarboxamide] was run?
The IC50 was 3 to 100 nM.

With Cn1c(N2CCN(CCO)CC2)nc(C(=O)NCc2ccc(F)cc2)c(O)c1=O [Compound 67, N-[(4-fluorophenyl)methyl]-1,6-dihydro-5-hydroxy-2-[4-(2-hydroxyethyl)-1-piperazinyl]-1-methyl-6-oxo-4-pyrimidinecarboxamide] as the molecule, how does the IC50 read?
The IC50 was 3 to 100 nM.

For Cn1c(N2CCCCS2(=O)=O)nc(C(=O)NCc2cccc(Cl)c2)c(O)c1=O [Compound 5, N-[(3-chlorophenyl)methyl]-1,6-dihydro-5-hydroxy-1-methyl-6-oxo-2-(tetrahydro-1,1-dioxido-2H-1,2-thiazin-2-yl)-4-pyrimidinecarboxamide], which IC50 is on record?
The IC50 was 3 to 100 nM.

How did the IC50 turn out when CC(=O)N1CCN(c2nc(C(=O)NCc3ccc(F)cc3)c(O)c(=O)n2C)CC1 [Compound 71, 2-(4-acetyl-1-piperazinyl)-N-[(4-fluorophenyl)methyl]-1,6-dihydro-5-hydroxy-1-methyl-6-oxo-4-pyrimidinecarboxamide] was run?
Its IC50 is 3 to 100 nM.

For Cn1c(N2CCCCS2(=O)=O)nc(C(=O)NCc2cccs2)c(O)c1=O [Compound 34, 1,6-dihydro-5-hydroxy-1-methyl-6-oxo-2-(tetrahydro-1,1-dioxido-2H-1,2-thiazin-2-yl)-N-(2-thienylmethyl)-4-pyrimidinecarboxamide], which IC50 is on record?
The IC50 was 100 to 1000 nM.

How did the IC50 turn out when Cn1c(N2CCCCS2(=O)=O)nc(C(=O)NCc2ccc(F)c(Cl)c2)c(O)c1=O [Compound 18, N-[(3-chloro-4-fluorophenyl)methyl]-1,6-dihydro-5-hydroxy-1-methyl-6-oxo-2-(tetrahydro-1,1-dioxido-2H-1,2-thiazin-2-yl)-4-pyrimidinecarboxamide] was run?
Its IC50 is 3 to 100 nM.

With Cn1c(N2CCN(c3ncccn3)CC2)nc(C(=O)NCc2ccc(F)cc2)c(O)c1=O [Compound 77, N-[(4-fluorophenyl)methyl]-1,6-dihydro-5-hydroxy-1-methyl-6-oxo-2-[4-(2-pyrimidinyl)-1-piperazinyl]-4-pyrimidinecarboxamide] as the molecule, how does the IC50 read?
Its IC50 is 3 to 100 nM.

With Cn1c(N2CCCCS2(=O)=O)nc(C(=O)NCc2ccc(F)cc2F)c(O)c1=O [Compound 17, N-[(2,4-difluorophenyl)methyl]-1,6-dihydro-5-hydroxy-1-methyl-6-oxo-2-(tetrahydro-1,1-dioxido-2H-1,2-thiazin-2-yl)-4-pyrimidinecarboxamide] as the molecule, how does the IC50 read?
The IC50 was 3 to 100 nM.

For Cn1c(N2CCCCC2CCO)nc(C(=O)NCc2ccc(F)cc2)c(O)c1=O (centres unmarked) [Compound 98, N-[(4-fluorophenyl)methyl]-1,6-dihydro-5-hydroxy-2-[2-(2-hydroxyethyl)-1-piperidinyl]-1-methyl-6-oxo-4-pyrimidinecarboxamide], which IC50 is on record?
The IC50 was 3 to 100 nM.

How did the IC50 turn out when Cn1c(N2CCC(C(N)=O)CC2)nc(C(=O)NCc2ccc(F)cc2)c(O)c1=O [Compound 94, 2-[4-(aminocarbonyl)-1-piperidinyl]-N-[(4-fluorophenyl)methyl]-1,6-dihydro-5-hydroxy-1-methyl-6-oxo-4-pyrimidinecarboxamide] was run?
Its IC50 is 3 to 100 nM.

For Cn1c(N2CCCCS2(=O)=O)nc(C(=O)NCc2cc(C(F)(F)F)cc(C(F)(F)F)c2)c(O)c1=O [Compound 44, N-[[3,5-bis(trifluoromethyl)phenyl]methyl]-1,6-dihydro-5-hydroxy-1-methyl-6-oxo-2-(tetrahydro-1,1-dioxido-2H-1,2-thiazin-2-yl)-4-pyrimidinecarboxamide], which IC50 is on record?
The IC50 was at least 1000 nM.

With Cn1c(N2CCCCS2(=O)=O)nc(C(=O)NCCc2ccc(F)cc2)c(O)c1=O [Compound 16, N-[2-(4-fluorophenyl)ethyl]-1,6-dihydro-5-hydroxy-1-methyl-6-oxo-2-(tetrahydro-1,1-dioxido-2H-1,2-thiazin-2-yl)-4-pyrimidinecarboxamide] as the molecule, how does the IC50 read?
The IC50 was at least 1000 nM.

Cc1cc(CNC(=O)c2nc(-n3ncccc3=O)n(C)c(=O)c2O)ccc1F [Compound 101, N-[(4-fluoro-3-methylphenyl)methyl]-1,6-dihydro-5-hydroxy-1-methyl-6-oxo-2-(6-oxo-1(6H)-pyridazinyl)-4-pyrimidinecarboxamide] was tested. Which IC50 did it give?
The IC50 was 3 to 100 nM.

Which IC50 does the source give for Cc1cc(CNC(=O)c2nc(N3CCC(O)CC3)n(C)c(=O)c2O)ccc1F [Compound 66, N-[(4-fluoro-3-methylphenyl)methyl]-1,6-dihydro-5-hydroxy-2-(4-hydroxy-1-piperidinyl)-1-methyl-6-oxo-4-pyrimidinecarboxamide] here?
The IC50 was 3 to 100 nM.

With Cc1ccccc1CNC(=O)c1nc(N2CCCCS2(=O)=O)n(C)c(=O)c1O [Compound 37, 1,6-dihydro-5-hydroxy-1-methyl-N-[(2-methylphenyl)methyl]-6-oxo-2-(tetrahydro-1,1-dioxido-2H-1,2-thiazin-2-yl)-4-pyrimidinecarboxamide] as the molecule, how does the IC50 read?
The IC50 was 100 to 1000 nM.

Which IC50 does the source give for COc1cccc(CCNC(=O)c2nc(N3CCCCS3(=O)=O)n(C)c(=O)c2O)c1 [Compound 39, 1,6-dihydro-5-hydroxy-N-[2-(3-methoxyphenyl)ethyl]-1-methyl-6-oxo-2-(tetrahydro-1,1-dioxido-2H-1,2-thiazin-2-yl)-4-pyrimidinecarboxamide] here?
Its IC50 is at least 1000 nM.

Which IC50 does the source give for Cc1cc(CNC(=O)c2nc(N3CCN(C(=O)N4CCNC4=O)CC3)n(C)c(=O)c2O)ccc1F [Compound 86, N-[(4-fluoro-3-methylphenyl)methyl]-1,6-dihydro-5-hydroxy-1-methyl-6-oxo-2-[4-[(2-oxo-1-imidazolidinyl)carbonyl]-1-piperazinyl]-4-pyrimidinecarboxamide] here?
Its IC50 is 3 to 100 nM.

Which IC50 does the source give for Cn1c(-n2ncccc2=O)nc(C(=O)NCc2ccc(F)cc2)c(O)c1=O [Compound 100, N-[(4-fluorophenyl)methyl]-1,6-dihydro-5-hydroxy-1-methyl-6-oxo-2-(6-oxo-1(6H)-pyridazinyl)-4-pyrimidinecarboxamide] here?
The IC50 was 100 to 1000 nM.

With Cn1c(N2CCCCS2(=O)=O)nc(C(=O)NCc2cc(Cl)ccc2Cl)c(O)c1=O [Compound 42, N-[(2,5-dichlorophenyl)methyl]-1,6-dihydro-5-hydroxy-1-methyl-6-oxo-2-(tetrahydro-1,1-dioxido-2H-1,2-thiazin-2-yl)-4-pyrimidinecarboxamide] as the molecule, how does the IC50 read?
Its IC50 is 100 to 1000 nM.

With Cn1c(N2CCC2)nc(C(=O)NCc2ccc(F)cc2)c(O)c1=O [Compound 92, 2-(1-azetidinyl)-N-[(4-fluorophenyl)methyl]-1,6-dihydro-5-hydroxy-1-methyl-6-oxo-4-pyrimidinecarboxamide] as the molecule, how does the IC50 read?
The IC50 was 3 to 100 nM.

CCCN1CCN(c2nc(C(=O)NCc3ccc(F)c(C)c3)c(O)c(=O)n2C)CC1 [Compound 74, N-[(4-fluoro-3-methylphenyl)methyl]-1,6-dihydro-5-hydroxy-1-methyl-6-oxo-2-(4-propyl-1-piperazinyl)-4-pyrimidinecarboxamide] was tested. Which IC50 did it give?
The IC50 was 3 to 100 nM.

For CNC(=O)N1CCN(c2nc(C(=O)NCc3ccc(F)c(C)c3)c(O)c(=O)n2C)CC1 [Compound 88, N-[(4-fluoro-3-methylphenyl)methyl]-1,6-dihydro-5-hydroxy-1-methyl-2-[4-[(methylamino)carbonyl]-1-piperazinyl]-6-oxo-4-pyrimidinecarboxamide], which IC50 is on record?
The IC50 was 3 to 100 nM.

How did the IC50 turn out when COc1ccc(CNC(=O)c2nc(N3CCCCS3(=O)=O)n(C)c(=O)c2O)c(OC)c1 [Compound 22, N-[(2,4-dimethoxyphenyl)methyl]-1,6-dihydro-5-hydroxy-1-methyl-6-oxo-2-(tetrahydro-1,1-dioxido-2H-1,2-thiazin-2-yl)-4-pyrimidinecarboxamide] was run?
The IC50 was 3 to 100 nM.

Which IC50 does the source give for Cn1c(N2CCCCS2(=O)=O)nc(C(=O)NCc2cccc(C(F)(F)F)c2)c(O)c1=O [Compound 29, 1,6-dihydro-5-hydroxy-1-methyl-6-oxo-2-(tetrahydro-1,1-dioxido-2H-1,2-thiazin-2-yl)-N-[[3-(trifluoromethyl)phenyl]methyl]-4-pyrimidinecarboxamide] here?
The IC50 was 3 to 100 nM.

For Cc1cc(CNC(=O)c2nc(N3CCNCC3)n(C)c(=O)c2O)ccc1F [Compound 70, N-[(4-fluoro-3-methylphenyl)methyl]-1,6-dihydro-5-hydroxy-1-methyl-6-oxo-2-(1-piperazinyl)-4-pyrimidinecarboxamide], which IC50 is on record?
The IC50 was 3 to 100 nM.

With Cn1c(N2CCCCS2(=O)=O)nc(C(=O)NCc2cc(F)ccc2F)c(O)c1=O [Compound 45, N-[(2,5-difluorophenyl)methyl]-1,6-dihydro-5-hydroxy-1-methyl-6-oxo-2-(tetrahydro-1,1-dioxido-2H-1,2-thiazin-2-yl)-4-pyrimidinecarboxamide] as the molecule, how does the IC50 read?
Its IC50 is 100 to 1000 nM.

COc1ccccc1CNC(=O)c1nc(N2CCCCS2(=O)=O)n(C)c(=O)c1O [Compound 24, 1,6-dihydro-5-hydroxy-N-[(2-methoxyphenyl)methyl]-1-methyl-6-oxo-2-(tetrahydro-1,1-dioxido-2H-1,2-thiazin-2-yl)-4-pyrimidinecarboxamide] was tested. Which IC50 did it give?
Its IC50 is 3 to 100 nM.
